Experimental data from ChEMBL document CHEMBL3098001, “Synthesis and biological evaluation of cyclopentyl-triazolol-pyrimidine (CPTP) based P2Y12 antagonists” (Bioorg Med Chem Lett, 2014).
pIC50: −log10 of the molar value.

Legend:
Rattus norvegicus [1] = assay: Inhibition of ADP-induced platelet aggregation in Sprague-Dawley rat plasma at 2.5 mg/kg, po treated 2.5 hrs prior to ADP-challenge measured after 2 mins by light transmission-based assay; assay type: functional
Rattus norvegicus [2] = assay: Inhibition of ADP-induced platelet aggregation in Sprague-Dawley rat assessed as bleeding time at 2.5 mg/kg, po after 2 hrs (reference value: 9.4 mins); assay type: organism-based; design: dose 2.5 mg/kg, route oral; conditions: in vivo
Rattus norvegicus [3] = assay: Inhibition of ADP-induced platelet aggregation in Sprague-Dawley rat assessed as blood loss volume at 2.5 mg/kg, po administered 2 hrs prior to transection measured for 30 mins (reference value: < 0.5 ml); assay type: organism-based; design: dose 2.5 mg/kg, route oral; conditions: in vivo, 0.5 h
[4] = Apparent oral clearance in rat at 10 mg/kg; assay type: ADME, organism-based; design: dose 10 mg/kg, route oral; conditions: in vivo
[5] = (§1) Apparent volume of distribution during terminal phase in rat at 10 mg/kg, po; assay type: ADME, organism-based; design: dose 10 mg/kg, route oral; conditions: in vivo, read-out: Vz/F
[6] = Cmax in dog at 1 mg/kg, po; assay type: ADME, organism-based, Canis lupus familiaris; design: dose 1 mg/kg, route oral; conditions: in vivo
[7] = AUC in dog at 1 mg/kg, po; assay type: ADME, organism-based, Canis lupus familiaris; design: dose 1 mg/kg, route oral; conditions: plasma
[8] = Half life in rat at 10 mg/kg, po; assay type: ADME, organism-based; design: dose 10 mg/kg, route oral; conditions: in vivo
[9] = Half life in dog at 1 mg/kg, po; assay type: ADME, organism-based, Canis lupus familiaris; design: dose 1 mg/kg, route oral; conditions: in vivo
[10] = AUC in rat at 10 mg/kg, po; assay type: ADME, organism-based; design: dose 10 mg/kg, route oral; conditions: plasma
[11] = Apparent oral clearance in dog at 1 mg/kg; assay type: ADME, organism-based, Canis lupus familiaris; design: dose 1 mg/kg, route oral; conditions: in vivo
[12] = Apparent volume of distribution during terminal phase in dog at 1 mg/kg, po; assay type: ADME, organism-based, Canis lupus familiaris; design: dose 1 mg/kg, route oral; conditions: in vivo, read-out: Vz/F
[13] = Cmax in rat at 10 mg/kg, po; assay type: ADME, organism-based; design: dose 10 mg/kg, route oral; conditions: in vivo
Rattus norvegicus [14] = assay: as §1; assay type: ADME, organism-based; design: dose 10 mg/kg, route oral; conditions: in vivo
[15] = target: P2Y purinoceptor 12 (Rattus norvegicus) (UniProt Q9EPX4); assay: Antagonist activity at P2Y12 receptor in rat platelet-rich plasma assessed as inhibition of ADP-induced platelet aggregation at 3 uM incubated for 5 mins prior to ADP-challenge by light transmission-based assay
Rattus norvegicus [16] = assay: Inhibition of ADP-induced platelet aggregation in Sprague-Dawley rat assessed as bleeding time at 5 mg/kg, po after 2 hrs (reference value: 9.4 mins); assay type: organism-based; design: dose 5 mg/kg, route oral; conditions: in vivo
Rattus norvegicus [17] = assay: Inhibition of ADP-induced platelet aggregation in Sprague-Dawley rat assessed as bleeding time at 0.625 mg/kg, po after 2 hrs (reference value: 9.4 mins); assay type: organism-based; design: dose 0.625 mg/kg, route oral; conditions: in vivo
Cytochrome P450 2C9 = Cytochrome P450 2C9 (Homo sapiens, UniProt P11712); assay: Inhibition of CYP2C9 (unknown origin); assay type: ADME
Rattus norvegicus [18] = assay: Inhibition of ADP-induced platelet aggregation in Sprague-Dawley rat assessed as blood loss volume at 1.25 mg/kg, po administered 2 hrs prior to transection measured for 30 mins (reference value: < 0.5 ml); assay type: organism-based; design: dose 1.25 mg/kg, route oral; conditions: in vivo, 0.5 h
[19] = Inhibition of CYP450 (unknown origin) at 30 uM; assay type: ADME; conditions: human
Rattus norvegicus [20] = assay: Inhibition of ADP-induced platelet aggregation in Sprague-Dawley rat assessed as blood loss volume at 0.625 mg/kg, po administered 2 hrs prior to transection measured for 30 mins (reference value: < 0.5 ml); assay type: organism-based; design: dose 0.625 mg/kg, route oral; conditions: in vivo, 0.5 h
Rattus norvegicus [21] = assay: Inhibition of ADP-induced platelet aggregation in Sprague-Dawley rat assessed as blood loss volume at 5 mg/kg, po administered 2 hrs prior to transection measured for 30 mins (reference value: < 0.5 ml); assay type: organism-based; design: dose 5 mg/kg, route oral; conditions: in vivo, 0.5 h
Rattus norvegicus [22] = assay: Inhibition of ADP-induced platelet aggregation in Sprague-Dawley rat assessed as bleeding time at 1.25 mg/kg, po after 2 hrs (reference value: 9.4 mins); assay type: organism-based; design: dose 1.25 mg/kg, route oral; conditions: in vivo
[23] = target: Voltage-gated inwardly rectifying potassium channel KCNH2 (Homo sapiens, UniProt Q12809); assay: Inhibition of human ERG channel at 10 uM by patch-clamp technique
Rattus norvegicus [24] = assay: Inhibition of ADP-induced platelet aggregation in Sprague-Dawley rat assessed as bleeding time at 10 mg/kg, po after 2 hrs (reference value: 9.4 mins); assay type: organism-based; design: dose 10 mg/kg, route oral; conditions: in vivo
Rattus norvegicus [25] = assay: Inhibition of ADP-induced platelet aggregation in Sprague-Dawley rat assessed as blood loss volume at 10 mg/kg, po administered 2 hrs prior to transection measured for 30 mins (reference value: < 0.5 ml); assay type: organism-based; design: dose 10 mg/kg, route oral; conditions: in vivo, 0.5 h

Chain of P2Y purinoceptor 12 (Rattus norvegicus) (Q9EPX4 whole entry): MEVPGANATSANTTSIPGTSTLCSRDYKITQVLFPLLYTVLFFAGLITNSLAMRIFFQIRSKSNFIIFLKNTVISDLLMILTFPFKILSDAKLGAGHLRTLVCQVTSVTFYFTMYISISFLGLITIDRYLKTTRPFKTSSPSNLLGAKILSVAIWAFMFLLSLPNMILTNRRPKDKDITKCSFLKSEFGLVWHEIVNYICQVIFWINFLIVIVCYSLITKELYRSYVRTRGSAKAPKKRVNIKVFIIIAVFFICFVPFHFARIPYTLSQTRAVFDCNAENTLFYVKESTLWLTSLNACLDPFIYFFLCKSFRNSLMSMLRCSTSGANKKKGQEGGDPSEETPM
Chain of Voltage-gated inwardly rectifying potassium channel KCNH2 (Q12809 whole entry): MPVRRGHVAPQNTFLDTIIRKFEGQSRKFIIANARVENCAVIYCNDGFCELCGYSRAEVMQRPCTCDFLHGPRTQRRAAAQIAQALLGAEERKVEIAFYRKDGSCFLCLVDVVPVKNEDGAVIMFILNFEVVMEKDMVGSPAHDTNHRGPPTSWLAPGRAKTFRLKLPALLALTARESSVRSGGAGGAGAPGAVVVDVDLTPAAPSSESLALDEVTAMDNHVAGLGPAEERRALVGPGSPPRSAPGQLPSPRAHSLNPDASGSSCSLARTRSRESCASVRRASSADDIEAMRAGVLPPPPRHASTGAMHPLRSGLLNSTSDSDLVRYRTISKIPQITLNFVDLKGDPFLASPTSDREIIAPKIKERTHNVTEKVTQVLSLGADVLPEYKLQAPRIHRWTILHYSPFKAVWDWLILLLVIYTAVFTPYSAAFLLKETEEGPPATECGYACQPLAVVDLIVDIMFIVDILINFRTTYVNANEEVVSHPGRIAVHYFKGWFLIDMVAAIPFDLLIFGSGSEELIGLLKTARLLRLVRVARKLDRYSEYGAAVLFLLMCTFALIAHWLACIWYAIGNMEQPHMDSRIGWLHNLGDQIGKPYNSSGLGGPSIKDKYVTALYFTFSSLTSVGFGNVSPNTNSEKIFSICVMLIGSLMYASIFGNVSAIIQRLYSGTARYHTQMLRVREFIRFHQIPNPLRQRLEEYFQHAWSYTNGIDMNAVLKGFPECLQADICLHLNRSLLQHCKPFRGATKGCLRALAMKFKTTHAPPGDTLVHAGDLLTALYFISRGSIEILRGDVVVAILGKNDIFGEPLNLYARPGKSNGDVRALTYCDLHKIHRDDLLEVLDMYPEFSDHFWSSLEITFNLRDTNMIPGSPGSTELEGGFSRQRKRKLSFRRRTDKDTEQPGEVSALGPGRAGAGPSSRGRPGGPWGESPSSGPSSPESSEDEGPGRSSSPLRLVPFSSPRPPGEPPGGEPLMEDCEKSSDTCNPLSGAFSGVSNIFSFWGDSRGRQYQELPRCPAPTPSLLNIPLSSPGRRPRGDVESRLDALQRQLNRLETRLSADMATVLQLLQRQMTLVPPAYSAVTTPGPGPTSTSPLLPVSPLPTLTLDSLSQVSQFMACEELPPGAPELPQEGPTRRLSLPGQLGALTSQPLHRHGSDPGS
Chain of Cytochrome P450 2C9 (P11712 whole entry): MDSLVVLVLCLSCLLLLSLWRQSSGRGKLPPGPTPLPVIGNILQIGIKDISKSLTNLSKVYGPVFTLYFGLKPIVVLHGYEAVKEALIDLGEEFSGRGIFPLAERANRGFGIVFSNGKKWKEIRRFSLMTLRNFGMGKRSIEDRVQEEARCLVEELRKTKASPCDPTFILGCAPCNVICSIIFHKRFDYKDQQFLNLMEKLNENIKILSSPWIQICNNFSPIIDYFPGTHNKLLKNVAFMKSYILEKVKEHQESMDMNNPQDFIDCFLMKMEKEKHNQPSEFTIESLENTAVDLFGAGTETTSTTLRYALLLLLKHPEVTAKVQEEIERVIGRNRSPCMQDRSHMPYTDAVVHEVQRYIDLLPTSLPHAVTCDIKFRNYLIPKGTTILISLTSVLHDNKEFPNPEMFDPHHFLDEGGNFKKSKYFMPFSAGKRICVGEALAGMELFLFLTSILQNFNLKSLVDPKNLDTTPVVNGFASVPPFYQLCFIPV

CL/F [4] [mL/min/kg] | Vd/F [5] [L/kg] | Cmax [6] [ng/mL] | AUC [7] [ng·h/mL] | half-life [8] [h] | half-life [9] [h] | AUC [10] [ng·h/mL] | CL/F [11] [mL/min/kg] | Vd/F [12] [L/kg] | Cmax [13] [ng/mL] | inhibition [15] [%] | Structure (SMILES) | further results
133 | 24.2 | 125 | 504 | 2.23 | 2.03 | 1400 | 32.8 | 5.76 | 267 | – | CCCSc1nc(N[C@@H]2C[C@H]2c2ccc(F)c(F)c2)c2nnn([C@@H]3C[C@H](OCCO)[C@@H](O)[C@H]3O)c2n1 [TICAGRELOR] | inhibition in vivo at 2.5 mg/kg (Rattus norvegicus [1]): 59%; Time (Rattus norvegicus [2]): > 30 min; Activity (Rattus norvegicus [3]): 0.5 mL
137 | 27.1 | 8.29 | 24.3 | 2.33 | 1.21 | 1270 | 865 | 88.4 | 195 | – | CCCSc1nc(N[C@@H]2C[C@H]2c2ccc(F)c(F)c2)c2nnn([C@@H]3C[C@H](F)[C@@H](O)[C@H]3O)c2n1 | –
– | – | – | – | 1.72 | – | 13.8 | – | – | 3.89 | – | CCCSc1nc(N[C@@H]2C[C@H]2c2ccc(F)c(F)c2)c2nnn([C@@H]3C[C@H](OCC(O)CO)[C@@H](O)[C@H]3O)c2n1 (mixture of isomers) | Vz/F (Rattus norvegicus [14]): 1513 L/kg
2200 | 217 | – | – | 1.7 | – | 146 | – | – | 55.4 | – | CCCSc1nc(N[C@@H]2C[C@H]2c2ccc(F)c(F)c2)c2nnn(C3[C@H](O)[C@H](O)[C@@H](O)[C@H]3O)c2n1 (some centres undefined) | –
– | – | – | – | – | – | – | – | – | – | 0 | CCCSc1nc(N[C@@H]2C[C@H]2c2ccc(F)c(F)c2)c2nnn([C@@H]3C[C@H](OCCOCCO)[C@@H](O)[C@H]3O)c2n1 | –
– | – | – | – | – | – | – | – | – | – | 0 | CCCSc1nc(N[C@@H]2C[C@H]2c2ccc(F)c(F)c2)c2nnn([C@H]3[C@H](O)[C@H](O)[C@]4(CO)C[C@H]34)c2n1 | –
712 | 206 | – | – | 3.35 | – | 64.4 | – | – | 28.7 | – | CCCSc1nc(N[C@@H]2C[C@H]2c2ccc(Cl)s2)c2nnn([C@@H]3C[C@H](OCCO)[C@@H](O)[C@H]3O)c2n1 | –
139 | 43.4 | 110 | 469 | 3.56 | 1.94 | 1200 | 36.7 | 6.26 | 303 | – | CCCSc1nc(N[C@@H]2C[C@H]2c2ccc(F)c(F)c2)c2nnn([C@H]3[C@H](O)[C@H](O)[C@@H](O)[C@H]3F)c2n1 | Time (Rattus norvegicus [16]): > 30 min; inhibition in vivo at 2.5 mg/kg (Rattus norvegicus [1]): 95%; Time (Rattus norvegicus [17]): 8.59 min; Time (Rattus norvegicus [2]): 9.76 min; Activity (Rattus norvegicus [3]): < 0.5 mL; pIC50 (Cytochrome P450 2C9): 5.05; Activity (Rattus norvegicus [18]): < 0.5 mL; inhibition (INH) [19]: Not Active; Activity (Rattus norvegicus [20]): < 0.5 mL; Activity (Rattus norvegicus [21]): 0.9 mL; Time (Rattus norvegicus [22]): 10.67 min; inhibition (INH) [23]: Not Active; Time (Rattus norvegicus [24]): > 30 min; Activity (Rattus norvegicus [25]): 1.75 mL
– | – | – | – | – | – | – | – | – | – | 0 | CCCSc1nc(NC2Cc3ccccc3C2)c2nnn([C@@H]3C[C@H](OCCO)[C@@H](O)[C@H]3O)c2n1 | –
350 | 82.4 | 55.6 | 218 | 2.83 | 2.46 | 512 | 72.3 | 15.4 | 127 | – | CCCSc1nc(N[C@@H]2C[C@H]2c2ccc(F)c(F)c2)c2nnn([C@H]3[C@H](O)[C@H](O)[C@@H](OCCO)[C@H]3F)c2n1 | –
